# Laboratory results reported in patent US20110190126A1, “WEED CONTROL METHOD AND HERBICIDAL COMPOSITION” (SYNGENTA CROP PROTECTION, INC., priority 2008, published 2011).
# Tested on: sugarcane
# Assay: Field trials in 1.5 year plant cane: phytotoxicity (% damage) to sugarcane
# Type: in vivo
# Conditions: 200 g/ha
# Experimental: Five field trials are carried out in 1.5 year plant cane to examine the effect on sugarcane of combinations of compound of Formula I with various PS-II inhibiting herbicides. Plot sizes are 20 m^2 and results shown are the average of 3 replicate treatments.
smiles,measurement,value
COCCOCc1nc(C(F)(F)F)ccc1C(=O)C1=C(O)C2CCC(C2)C1=O (stereo not shown) [Formula I],% Damage (Average of three trials).,8%
